Data reported in patent US20180282271A1, “ANTIBIOTIC AMINO ACID MIMETICS” (priority 2017, published 2018).
Converted amounts (≈) assume the structure as drawn.

Legend:
[1] = test system: Escherichia coli MMX 102/ATCC 25922; conditions: CLSI QC ranges shown in parenthesis; cited from earlier work
[2] = test system: Staphylococcus aureus MMX 100/ATCC 29213; conditions: CLSI QC ranges shown in parenthesis; cited from earlier work
[3] = test system: Clostridium difficile MMX 4381/ATCC 700057; assay: Broth microdilution MIC, standard CLSI media, ATCC QC organism; assay type: cell-based; conditions: Clostridioides difficile, ATCC700057, 48 hr results
Protocol: (§1) The test organisms were originally received from clinical sources or from the American Type Culture Collection (ATCC, Manassas, Va.). When received, the organisms were subcultured onto an appropriate agar medium. Following incubation, colonies were harvested from the plate and a cell suspension was prepared in broth containing cryoprotectant and frozen at −80° C. Prior to the assay, a frozen vial of the culture was partially thawed and the contents were streaked for isolation onto an appropriate growth medium. The agar plates were incubated overnight at 35° C. Test organisms included staphylococci and enterococci (Table 1), streptococci (Table 2), Enterobacteriaceae (Table 3), lactose non-fermenting Gram-negative bacilli (Table 4), Haemophilus influenzae (Table 5), Neisseria gonorrhoeae (Table 5), and Clostridium difficile (Table 6).
(§2) The standard CLSI broth medium was employed for the purposes of quality control of the comparator drugs for the MIC assay and was only used for testing of relevant ATCC quality control isolates as established by CLSI (1-5).
(§3) MIC values were determined using a broth microdilution method as recommended by CLSI (1-5).
(§4) Column 1 was filled with 300 μL of the investigational and control agents at the appropriate stock concentration (40× of the highest test concentration). The Biomek 2000 was used to make eleven 2-fold serial dilutions to create a “mother plate.” The wells of column 12 contained no drug and served as growth control wells.
(§5) The daughter plates were prepared on the Biomek FX instrument which transferred 5 μL of drug solution from each well of the mother plate to the corresponding well of each daughter plate in a single step.
(§6) Standardized inoculum of each organism was prepared per CLSI methods (1-5). The inoculum for each organism was dispensed into sterile reservoirs divided by length (Beckman Coulter), and the Biomek 2000 was used to inoculate the plates. Daughter plates were placed on the Biomek 2000 work surface reversed so that inoculation took place from low to high drug concentration. The Biomek 2000 delivered 10 PL of standardized inoculum into each well resulting in a target inoculum size of approximately 5×10^5 CFU/mL. The wells of the daughter plates ultimately contained 185 μL of media, 5 μL of drug solution at 40× the test concentration, and 10 μL of bacterial inoculum prepared in media.
(§7) Plates were stacked 3-4 high, covered with a lid on the top plate, placed into plastic bags, and incubated at 35° C. under the appropriate conditions, with C. difficile incubated anaerobically. Plates were viewed post-incubation at 18-24 hr and again at 48 hr from the bottom using a plate viewer. […] MICs were read where visible growth of the organism was inhibited.

[4] = test system: Haemophilus influenzae MMX 1224/ATCC 49247; assay: as above; assay type: cell-based
Protocol: as §1, §2, §3, §4, §5, §6, §7

[5] = test system: Staphylococcus aureus MMX 100/ATCC 29213; assay: as above; assay type: cell-based
Protocol: as §1, §2, §3, §4, §5, §6, §7

[6] = test system: Escherichia coli MMX 102/ATCC 25922; assay: as above; assay type: cell-based
Protocol: as §1, §2, §3, §4, §5, §6, §7

[7] = test system: Streptococcus pneumoniae MMX 1195/ATCC 49619; assay: as above; assay type: cell-based
Protocol: as §1, §2, §3, §4, §5, §6, §7

[8] = test system: Neisseria gonorrhoeae MMX 683/ATCC 49226; assay: as above; assay type: cell-based
Protocol: as §1, §2, §3, §4, §5, §6, §7

[9] = test system: Pseudomonas aeruginosa MMX 103/ATCC 27853; assay: as above; assay type: cell-based
Protocol: as §1, §2, §3, §4, §5, §6, §7

[10] = test system: Enterococcus faecalis MMX 101/ATCC 29212; assay: as above; assay type: cell-based
Protocol: as §1, §2, §3, §4, §5, §6, §7

[11] = test system: Enterococcus faecalis MMX 101/ATCC 29212; conditions: CLSI QC ranges shown in parenthesis; cited from earlier work
[12] = test system: Streptococcus pneumoniae MMX 1195/ATCC 49619; conditions: CLSI QC ranges shown in parenthesis; cited from earlier work
[13] = test system: Pseudomonas aeruginosa MMX 103/ATCC 27853; conditions: CLSI QC ranges shown in parenthesis; cited from earlier work
[14] = test system: Haemophilus influenzae MMX 1224/ATCC 49247; conditions: CLSI QC ranges shown in parenthesis; cited from earlier work

Row | Compound | CLSI QC range of MIC [1] | CLSI QC range of MIC [2] | MIC ([4]; ATCC49247, 24 hr results) [µg/mL] | MIC ([4]; ATCC49247, 48 hr results) [µg/mL] | MIC ([5]; ATCC29213, 24 hr results) [µg/mL] | MIC ([5]; ATCC29213, 48 hr results) [µg/mL] | MIC ([6]; ATCC25922, 24 hr results) [µg/mL] | MIC ([6]; ATCC25922, 48 hr results) [µg/mL] | MIC ([7]; ATCC49619, 24 hr results) [µg/mL] | MIC ([7]; ATCC49619, 48 hr results) [µg/mL] | MIC ([8]; ATCC49226, 24 hr results) [µg/mL] | MIC ([8]; ATCC49226, 48 hr results) [µg/mL] | MIC ([9]; ATCC27853, 24 hr results) [µg/mL] | MIC ([9]; ATCC27853, 48 hr results) [µg/mL] | MIC ([10]; ATCC29212, 24 hr results) [µg/mL] | MIC ([10]; ATCC29212, 48 hr results) [µg/mL] | CLSI QC range of MIC [13] | other results
1 | C[C@@H](O)[C@H]1C(=O)N2C(C(=O)O)=C(S[C@@H]3CN[C@H](C(=O)N(C)C)C3)[C@H](C)[C@H]12 [MEM, meropenem] | (0.008-0.06) μg/mL | (0.03-0.12) μg/mL | 0.06 (≈ 0.156 µM) | 0.06 (≈ 0.156 µM) | 0.06 (≈ 0.156 µM) | 0.12 (≈ 0.313 µM) | 0.03 (≈ 0.0782 µM) | 0.03 (≈ 0.0782 µM) | 0.06 (≈ 0.156 µM) | 0.06 (≈ 0.156 µM) | > 4 | > 4 | 0.5 (≈ 1.3 µM) | 1 (≈ 2.61 µM) | 4 (≈ 10.4 µM) | > 4 | (0.25-1) μg/mL | MIC [3]: 1 µg/mL (≈ 2.61 µM); CLSI QC range of MIC [11]: (2-8) μg/mL; CLSI QC range of MIC [12]: (0.03-0.25) μg/mL
2 | CO/N=C(\C(=O)N[C@@H]1C(=O)N2C(C(=O)[O-])=C(C[N+]3(C)CCCC3)CS[C@H]12)c1csc(N)n1 [FEP, cefepime] | (0.06-0.5) μg/mL | (4-16) μg/mL | 0.25 (≈ 0.52 µM) | 0.25 (≈ 0.52 µM) | 16 (≈ 33.3 µM) | 16 (≈ 33.3 µM) | 0.25 (≈ 0.52 µM) | 0.25 (≈ 0.52 µM) | 0.5 (≈ 1.04 µM) | 0.5 (≈ 1.04 µM) | 16 (≈ 33.3 µM) | 32 (≈ 66.6 µM) | 1 (≈ 2.08 µM) | 2 (≈ 4.16 µM) | > 64 | > 64 | (1-4) μg/mL | CLSI QC range of MIC [14]: (0.12-1) μg/mL
